Tests used:
[1] = biological target: T1, human 5-HT4b receptor (Homo sapiens, UniProt Q13639); assay: Test Example 2: Serotonin 4 (5-HT4) receptor agonist activity assay, cAMP HTRF in CHO cells (Table 97); type: cell-based; details: cAMP in CHO cells expressing human 5-HT4b receptor, mean value; for Emax: 0.25 h, intrinsic activity, maximal activity of 5-HT defined as 100%, read-out: IA (%); for EC50: concentration showing 50% of IA
T1 construct: expressed in transfected cells; host or cells: CHO cells (G418 selection)
T1 sequence (Q13639 whole entry): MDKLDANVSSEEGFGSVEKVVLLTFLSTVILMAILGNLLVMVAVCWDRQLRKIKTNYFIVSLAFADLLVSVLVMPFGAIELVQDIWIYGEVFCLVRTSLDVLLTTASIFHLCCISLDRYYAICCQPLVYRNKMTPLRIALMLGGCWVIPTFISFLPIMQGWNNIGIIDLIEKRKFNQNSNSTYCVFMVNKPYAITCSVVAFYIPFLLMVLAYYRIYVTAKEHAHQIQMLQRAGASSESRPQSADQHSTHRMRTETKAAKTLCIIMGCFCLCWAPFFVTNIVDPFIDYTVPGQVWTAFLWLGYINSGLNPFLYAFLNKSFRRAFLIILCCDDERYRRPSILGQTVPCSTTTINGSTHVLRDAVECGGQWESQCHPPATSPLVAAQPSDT
Procedure: The cAMP measurement test used herein was carried out by using CISBIO HTRF (trademark) cAMP Hirange kit according to the manufacturer's instructions attached therewith.
CHO cells expressing human 5-HT4b receptor were incubated in Medium 1 [DMEM/1% NEAA, 1% penicillin/streptomycin (P/S), 0.2 mg/mL GENETICIN (G418), 10% FBS] at 37° C. under 5% CO2 condition. Then, the cells were put into Medium 2 (DMEM/10000 cut FBS, G-418, P/S, NEAA) for 1 to 2 hours, and collected by treating with trypsin containing EDTA. The collected cells were suspended in Assay Buffer 1 [100 mM Hanks/HEPES buffer (pH 7.4)], the suspended cells were mixed with the testing compound on 384-well plates, and the cells were incubated at 31° C. for 15 minutes. To the cells were added cAMP-cryptate solution and cAMP-d2 solution, and they were incubated at room temperature for 1 hour. Then, time-resolved fluorescence was measured by En Vision (excitation wavelength: 330 nm, fluorescence wavelength: 620/665 nm). An intrinsic activity of the compound [IA (%)] and a concentration showing 50% of IA [EC50 (nM)] were calculated from the obtained results. In particular, the intrinsic activity (IA) was calculated on the basis of the maximal activity of 5-HT (measured from 10^−11 M to 10^−7 M) defined as 100%.
In the following table, the compounds used in the test are shown in numbers which correspond to the Example numbers above where the preparations of the compounds are described.

[2] = test system: scopolamine-induced cognitive impairment; assay: Example 5: Y-maze test, scopolamine-induced cognitive impairment, single-agent administration (Table 101); type: in vivo, ddY mouse; details: p.o., scopolamine-treated, # = P<0.05 vs scopolamine group
From the text: Thus, scopolamine-induced cognitive impairment model, one of the AD-like model, has been used to predict pharmacodynamic signals of putative procognitive compounds, utilizing the acetylcholinesterase inhibitor donepezil for illustration (See, Citations 1 and 2). The present inventors investigated the effect of each compound on reversal of scopolamine-induced deficits in performance of Y-maze test in mice, and they also investigated adjunctive effect of compounds with donepezil on reversal of deficits induced by scopolamine and MK801 in mice.
Used animal: ddY mouse (SLC)
In the experiments, the mice were grouped in the same way using Stat Preclinica (Version 1.03295; Takumi Information Technology Inc.). The selected mice were divided into 5 to 7 groups of 7 to 12 mice using the “completely randomization design by the single variable” program (Analytical program version 1.0.7), with body weight on the testing day. After grouping, p values for Bartlett's test and ANOVA across all groups were greater than 0.2, indicating no significant difference in this parameter among the groups.
The required amount of each compound was weighed and put into a glass homogenizer. […]
The required amount of scopolamine and MK801 were weighed, and saline was added to it to give 0.3 mg/mL and 0.015 mg/mL solution, respectively.
90 Min before the test, the mice were orally administered each compound, donepezil, and vehicle (0.5% methyl cellulose, 10 mL/kg). After 60 min, memory impairment was induced by administering scopolamine (0.6 mg/kg, s.c.) with (co-administration) or without (mono-administration) MK801 (0.03 mg/kg, s.c.). The control group received saline (2 mL/kg, s.c.) rather than scopolamine and MK801.
The Y-maze used herein is a three-arm maze with equal angles between all arms. The mazefloor and walls were constructed from black acrylic resin. The mice were initially placed within one arm, and the sequence and number of arm entries were recorded manually for each mouse over an 8-min period.
Data were processed and analyzed with Microsoft® Office Excel 2003. The alternation behavior was defined as entries into all three arms on consecutive occasions. The percent alternation behavior in each animal was calculated using the following formula, and rounded to one decimal place.
Alternation behavior(%)=[actual alternation/(total arm entries−2)]×100
Restoration ratio of alternation behavior (%) in each animal was calculated using the following formula, and rounded to one decimal place.
Restoration ratio of alternation behavior in each animal (%)=y Alternation behavior in each animal (%)=x Mean of alternation behavior in vehicle-treated group (group No. 1) (%)=A Mean of alternation behavior in scopolamine-treated group (group No. 2) (%)=B
Data were expressed as the mean of the percent alternation behavior, the number of total arm entries and the restoration ratio of alternation behavior.
Values of Y-maze tests are expressed as mean of alternation behavior (n=7−12).
Alternation behaviors in the scopolamine-treated groups were compared to those in the control groups using Wilcoxon rank sum test (Stat preclinical; Version 1.03295; Takumi Information Technology Inc.) with a two-sided significance level of 0.05.
Restoration of alternation behavior was analyzed using Stat Preclinica. Alternation behaviors in the vehicle-treated group were compared to those in the test substance-treated groups using non-parametric Dunnett multiple comparison test (Analytical program version 1.0.2) with a two-sided significance level of 0.05.

## CC(C)c1nn(-c2noc(C3CCN(C4CCN(C(=O)CO)CC4)CC3)n2)c2c(F)cccc12 [Example 242, 1-(4-{3-[7-fluoro-3-(propan-2-yl)-1H-indazol-1-yl]-1,2,4-oxadiazol-5-yl}-1,4′-bipiperidin-1′-yl)-2-hydroxyethanone]
[1]
  Emax: 88%
  EC50: 2.2 nM
[2]; compound 1 mg/kg
  Alternation behavior (%): 63.4^# %
[2]; compound 3 mg/kg
  Alternation behavior (%): 62.9^# %
[2]; compound 10 mg/kg
  Alternation behavior (%): 57.5%

## CC(=O)N1CCC(N2CCC(c3nc(-n4nc(C(C)C)c5cccc(F)c54)no3)CC2)CC1.Cl [Example 232, 1-(4-{3-[7-fluoro-3-(propan-2-yl)-1H-indazol-1-yl]-1,2,4-oxadiazol-5-yl}-1,4′-bipiperidin-1′-yl)ethanone hydrochloride]
[1]
  Emax: 95%
  EC50: 2.6 nM
[2]; compound 1 mg/kg
  Alternation behavior (%): 66.3^# %
[2]; compound 3 mg/kg
  Alternation behavior (%): 63.0^# %
[2]; compound 10 mg/kg
  Alternation behavior (%): 53.6%

Reference: patent publication US20140057895A1, “INDAZOLE- AND PYRROLOPYRIDINE-DERIVATIVE AND PHARMACEUTICAL USE THEREOF” (priority 2011, published 2014)
